What is called IC50 is the concentration that gives 50% inhibition.

The target in one experiment is human orexin-2 receptor (Homo sapiens (Human), UniProt O43614). Briefly: FLIPR Ca2+ flux assay, orexin-2 receptor antagonism. The format is cell-based. Conditions: CHO cells; agonist 70 pM Ala-6,12 human orexin-A; read-out: hOX2R FLIPR IC50. The method, then:
In a typical experiment the OX1 and OX2 receptor antagonistic activity of the compounds of the present invention was determined in accordance with the following experimental method. For intracellular calcium measurements, Chinese hamster ovary (CHO) cells expressing the rat orexin-1 receptor or the human orexin-2 receptor, are grown in Iscove's modified DMEM containing 2 mM L-glutamine, […], 1% hypoxanthine-thymidine supplement, 100 U/ml penicillin, 100 μg/ml streptomycin and 10% heat-inactivated fetal calf serum (FCS). The cells are seeded at 20,000 cells/well into Becton-Dickinson black 384-well clear bottom sterile plates coated with poly-D-lysine. All reagents were from GIBCO-Invitrogen Corp. The seeded plates are incubated overnight at 37° C. and 5% CO2. Ala-6,12 human orexin-A as the agonist is prepared as a 1 mM stock solution in 1% bovine serum albumin (BSA) and diluted in assay buffer (HBSS containing 20 mM HEPES, 0.1% BSA and 2.5 mM probenecid, pH7.4) for use in the assay at a final concentration of 70 pM. Test compounds are prepared as 10 mM stock solution in DMSO, then diluted in 384-well plates, first in DMSO, then assay buffer. On the day of the assay, cells are washed 3 times with 100 μl assay buffer and then incubated for 60 min (37° C., 5% CO2) in 60 μl assay buffer containing 1 μM Fluo-4AM ester, 0.02% pluronic acid, and 1% BSA. The dye loading solution is then aspirated and cells are washed 3 times with 100 μl assay buffer. 30 μl of that same buffer is left in each well. Within the Fluorescent Imaging Plate Reader (FLIPR, Molecular Devices), test compounds are added to the plate in a volume of 25 μl, incubated for 5 min and finally 25 μl of agonist is added. Fluorescence is measured for each well at 1 second intervals for 5 minutes and the height of each fluorescence peak is compared to the height of the fluorescence peak induced by 70 pM Ala-6,12 orexin-A with buffer in place of antagonist. […] The intrinsic orexin receptor antagonist activity of a compound which may be used in the present invention may be determined by these assays.
Background: Calcium assays in cells follow changes in intracellular calcium, usually with a dye or a luminescent sensor.

The next experiment has as its target hOX1R (Homo sapiens, UniProt O43613). The experiment can be described thus: FLIPR Ca2+ flux assay, orexin-1 receptor antagonism. Format: cell-based. Conditions: CHO cells; agonist 70 pM Ala-6,12 human orexin-A.

human orexin-2 receptor, sequence (O43614 whole entry): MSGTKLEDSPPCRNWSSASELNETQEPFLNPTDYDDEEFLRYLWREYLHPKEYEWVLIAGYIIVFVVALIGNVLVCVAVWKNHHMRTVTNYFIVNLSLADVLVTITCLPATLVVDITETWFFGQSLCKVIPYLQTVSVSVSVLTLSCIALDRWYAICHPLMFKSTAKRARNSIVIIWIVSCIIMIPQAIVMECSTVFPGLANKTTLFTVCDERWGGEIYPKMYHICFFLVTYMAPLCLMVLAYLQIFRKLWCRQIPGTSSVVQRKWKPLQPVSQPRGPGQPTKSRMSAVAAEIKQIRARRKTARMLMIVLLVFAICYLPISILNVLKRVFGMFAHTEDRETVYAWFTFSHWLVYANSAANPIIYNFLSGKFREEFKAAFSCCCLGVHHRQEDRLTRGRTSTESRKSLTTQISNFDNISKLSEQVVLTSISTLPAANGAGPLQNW

Consider `CCOc1ccnc(O[C@@H]2CC[C@@H](C)N(C(=O)c3ccccc3-n3nccn3)C2)c1C(=O)OC` [Example 27, Methyl 4-ethoxy-2-{[(3R,6R)-6-methyl-1-{[2-(2H-1,2,3-triazol-2-yl)phenyl]carbonyl}piperidin-3-yl]oxy}pyridine-3-carboxylate], for which the IC50 on human orexin-2 receptor was 167 nM; on hOX1R it was 7 µM.

Regarding `CCOC(=O)c1c(OCC)ccnc1O[C@@H]1CC[C@@H](C)N(C(=O)c2ccccc2-n2ncnn2)C1` [Example 28, Ethyl 4-ethoxy-2-{[(3R,6R)-6-methyl-1-{[2-(2H-tetrazol-2-yl)phenyl]carbonyl}piperidin-3-yl]oxy}pyridine-3-carboxylate], the IC50 at human orexin-2 receptor was determined as 18 nM; on hOX1R, 4.13 µM.

For the compound `COC(=O)c1c(OC)cccc1O[C@@H]1CC[C@@H](C)N(C(=O)c2ccccc2-n2nccn2)C1` [Example 31, Methyl 2-methoxy-6-{[(3R,6R)-6-methyl-1-{[2-(2H-1,2,3-triazol-2-yl)phenyl]carbonyl}piperidin-3-yl]oxy}benzoate], the half-maximal inhibitory concentration (IC50) was 25 nM on human orexin-2 receptor and greater than 10 µM at hOX1R.

With `COC(=O)c1c(OC)cccc1O[C@@H]1CC[C@@H](C)N(C(=O)c2ccsc2-n2nccn2)C1` [Example 32, methyl 2-methoxy-6-{[(3R,6R)-6-methyl-1-{[2-(2H-1,2,3-triazol-2-yl)thiophen-3-yl]carbonyl}piperidin-3-yl]oxy}benzoate], the IC50 at human orexin-2 receptor was 61 nM; on hOX1R, greater than 10 µM.

In the case of `COC(=O)c1c(OC)cccc1O[C@@H]1CC[C@@H](C)N(C(=O)c2ccccc2-n2ncnn2)C1` [Example 33, methyl 2-methoxy-6-{[(3R,6R)-6-methyl-1-{[2-(2H-tetrazol-2-yl)phenyl]carbonyl}piperidin-3-yl]oxy}bcnzoate], the values for the IC50 at human orexin-2 receptor and on hOX1R were 202 nM and greater than 10 µM, respectively.

Turning to `COC(=O)c1c(OC)cccc1O[C@@H]1CC[C@@H](C)N(C(=O)c2ccsc2-c2ncccn2)C1` [Example 34, methyl 2-methoxy-6-({(3R,6R)-6-methyl-1-[(2-pyrimidin-2-ylthiophen-3-yl)carbonyl]piperidin-3-yl}oxy)benzoate], the IC50 at human orexin-2 receptor was 42 nM; on hOX1R, greater than 10 µM.

Regarding `COC(=O)c1c(OC)cccc1O[C@@H]1CC[C@@H](C)N(C(=O)c2ccccc2-c2ncccn2)C1` [Example 35, methyl 2-methoxy-6-({(3R,6R)-6-methyl-1-[(2-pyrimidin-2-ylphenyl)carbonyl]piperidin-3-yl}oxy)benzoate], the IC50 at human orexin-2 receptor is 35 nM; at hOX1R it was greater than 10 µM.

For the origin of these results see patent publication US9975876B2, “2-pyridyloxy-3-ester-4-ether orexin receptor antagonists” (MERCK SHARP & DOHME CORP., priority 2013, dated 2018).
